Source: ChEMBL document CHEMBL1201862, “PubChem BioAssay data set” (2004)
One block for each compound: values may come before it. Activity calls are given as the source filed them.

Experiments:
[1] = system: HEK293; test: EBV LMP1 TES2 canonical NF-kB signalling blockers – cell-based, HEK293, luciferase, cherry-pick, dose response (AID 588343); assay type: functional; conditions: Homo sapiens
[2] = target: Glyceraldehyde-3-phosphate dehydrogenase (Homo sapiens, UniProt P04406)
[3] = target: T1, Alkaline phosphatase, tissue-nonspecific isozyme (Homo sapiens, UniProt P05186); test: potency against alkaline phosphatase TNAP – biochemical, luminescent, dose response, SAR follow-up (AID 1056)
T1 sequence (P05186 whole entry): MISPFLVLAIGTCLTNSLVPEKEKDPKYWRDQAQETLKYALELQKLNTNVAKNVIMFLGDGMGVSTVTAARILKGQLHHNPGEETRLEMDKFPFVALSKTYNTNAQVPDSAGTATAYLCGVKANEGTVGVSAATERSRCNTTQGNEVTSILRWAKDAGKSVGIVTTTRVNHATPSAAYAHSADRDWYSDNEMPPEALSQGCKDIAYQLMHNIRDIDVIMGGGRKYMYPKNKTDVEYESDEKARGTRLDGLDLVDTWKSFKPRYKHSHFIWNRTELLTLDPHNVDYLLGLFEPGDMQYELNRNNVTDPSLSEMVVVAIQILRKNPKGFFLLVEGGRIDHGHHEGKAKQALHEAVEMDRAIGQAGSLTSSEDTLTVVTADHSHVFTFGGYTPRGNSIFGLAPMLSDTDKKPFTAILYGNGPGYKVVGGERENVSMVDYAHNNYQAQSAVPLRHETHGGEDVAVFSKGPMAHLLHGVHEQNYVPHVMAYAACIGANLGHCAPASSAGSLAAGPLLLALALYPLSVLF

[4] = target: Cytochrome P450 3A4 (Homo sapiens, UniProt P08684);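 also: CYP3A4 tested as one member of a cytochrome P450 panel screen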
Sequence of Cytochrome P450 3A4 (P08684 whole entry): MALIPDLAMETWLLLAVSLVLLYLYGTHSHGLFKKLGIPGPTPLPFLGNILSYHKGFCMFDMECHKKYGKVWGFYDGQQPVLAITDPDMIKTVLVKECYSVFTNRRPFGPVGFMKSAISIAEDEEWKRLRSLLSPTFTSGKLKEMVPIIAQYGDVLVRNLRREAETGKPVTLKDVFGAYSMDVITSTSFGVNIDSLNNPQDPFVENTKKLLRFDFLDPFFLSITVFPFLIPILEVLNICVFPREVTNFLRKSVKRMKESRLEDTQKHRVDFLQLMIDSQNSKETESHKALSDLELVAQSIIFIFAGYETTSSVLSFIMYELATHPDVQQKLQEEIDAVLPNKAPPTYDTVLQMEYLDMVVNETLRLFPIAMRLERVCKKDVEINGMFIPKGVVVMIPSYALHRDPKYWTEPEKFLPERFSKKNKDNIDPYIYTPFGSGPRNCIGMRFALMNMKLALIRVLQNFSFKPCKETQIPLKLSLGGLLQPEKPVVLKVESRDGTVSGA

[5] = target: T2, Cytochrome P450 1A2 (Homo sapiens, UniProt P05177);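 also: PubChem cytochrome P450 panel assay, CYP1A2 panel member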
T2 sequence (P05177 whole entry): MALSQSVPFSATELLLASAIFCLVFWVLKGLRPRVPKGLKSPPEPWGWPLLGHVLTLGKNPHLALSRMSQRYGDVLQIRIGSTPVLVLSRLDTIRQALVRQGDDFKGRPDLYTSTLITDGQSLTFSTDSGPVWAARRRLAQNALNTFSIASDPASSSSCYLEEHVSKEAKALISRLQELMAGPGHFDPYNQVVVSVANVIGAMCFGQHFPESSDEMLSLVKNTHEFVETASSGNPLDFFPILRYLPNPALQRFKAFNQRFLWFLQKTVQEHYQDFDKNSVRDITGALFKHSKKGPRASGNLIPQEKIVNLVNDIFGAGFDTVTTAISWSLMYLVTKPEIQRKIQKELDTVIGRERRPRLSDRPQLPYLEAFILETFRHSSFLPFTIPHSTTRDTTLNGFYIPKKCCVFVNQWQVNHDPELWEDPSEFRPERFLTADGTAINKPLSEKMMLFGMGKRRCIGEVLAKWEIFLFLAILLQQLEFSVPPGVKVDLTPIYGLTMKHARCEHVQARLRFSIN

[6] = target: Cytochrome P450 2D6 (Homo sapiens, UniProt P10635);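 also: CYP2D6 member of a cytochrome P450 panel assay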
Sequence of Cytochrome P450 2D6 (P10635 whole entry): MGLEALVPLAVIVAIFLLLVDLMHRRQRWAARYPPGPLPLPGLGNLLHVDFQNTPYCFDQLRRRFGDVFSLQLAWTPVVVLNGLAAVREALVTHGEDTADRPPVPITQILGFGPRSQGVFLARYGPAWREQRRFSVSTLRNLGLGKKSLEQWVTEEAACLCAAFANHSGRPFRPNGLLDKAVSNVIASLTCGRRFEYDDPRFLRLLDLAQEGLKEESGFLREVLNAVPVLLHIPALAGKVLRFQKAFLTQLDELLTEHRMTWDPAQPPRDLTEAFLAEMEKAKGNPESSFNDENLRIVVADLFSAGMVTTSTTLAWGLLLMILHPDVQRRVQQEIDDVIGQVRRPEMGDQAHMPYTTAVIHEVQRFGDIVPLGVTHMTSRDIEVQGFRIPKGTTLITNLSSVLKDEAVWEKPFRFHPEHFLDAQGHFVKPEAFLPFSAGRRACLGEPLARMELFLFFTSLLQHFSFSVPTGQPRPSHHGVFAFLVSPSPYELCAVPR

[7] = target: T3, Cysteine protease ATG4B (Homo sapiens, UniProt Q9Y4P1); assay type: functional;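 also: Fluorescence-based dose-response confirmation assay measuring inhibition of ATG4B activity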
T3 sequence (Q9Y4P1 whole entry): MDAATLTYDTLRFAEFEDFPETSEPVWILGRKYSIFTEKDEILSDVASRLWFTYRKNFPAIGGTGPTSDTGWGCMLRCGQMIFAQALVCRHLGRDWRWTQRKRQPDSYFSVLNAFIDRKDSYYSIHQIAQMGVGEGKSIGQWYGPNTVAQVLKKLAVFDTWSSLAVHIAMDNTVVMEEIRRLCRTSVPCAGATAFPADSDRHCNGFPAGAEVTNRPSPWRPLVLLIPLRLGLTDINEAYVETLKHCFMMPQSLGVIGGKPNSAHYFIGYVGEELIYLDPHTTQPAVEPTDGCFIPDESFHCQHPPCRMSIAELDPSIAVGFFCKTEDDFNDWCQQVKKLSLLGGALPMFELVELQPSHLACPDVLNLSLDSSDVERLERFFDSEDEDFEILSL

[8] = target: Phospholipase A2 (Homo sapiens, UniProt P04054); assay type: functional;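 also: confirmatory dose-response counterscreen on phospholipase A2, testing hits that came from an ultra-high-throughput screen for ATG4B inhibitors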
Sequence of Phospholipase A2 (P04054 whole entry): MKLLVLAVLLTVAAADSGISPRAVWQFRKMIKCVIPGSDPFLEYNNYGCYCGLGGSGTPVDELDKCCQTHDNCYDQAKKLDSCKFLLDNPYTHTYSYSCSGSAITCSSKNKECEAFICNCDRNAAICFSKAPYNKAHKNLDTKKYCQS

[9] = target: Glucose-6-phosphate 1-dehydrogenase (Homo sapiens, UniProt P11413); test: inhibition of Homo sapiens G6PD, dose series – biochemical, fluorescence, selectivity assay for P. falciparum G6PD inhibitor project, dose response (AID 504792); assay type: functional
Sequence of Glucose-6-phosphate 1-dehydrogenase (P11413 whole entry): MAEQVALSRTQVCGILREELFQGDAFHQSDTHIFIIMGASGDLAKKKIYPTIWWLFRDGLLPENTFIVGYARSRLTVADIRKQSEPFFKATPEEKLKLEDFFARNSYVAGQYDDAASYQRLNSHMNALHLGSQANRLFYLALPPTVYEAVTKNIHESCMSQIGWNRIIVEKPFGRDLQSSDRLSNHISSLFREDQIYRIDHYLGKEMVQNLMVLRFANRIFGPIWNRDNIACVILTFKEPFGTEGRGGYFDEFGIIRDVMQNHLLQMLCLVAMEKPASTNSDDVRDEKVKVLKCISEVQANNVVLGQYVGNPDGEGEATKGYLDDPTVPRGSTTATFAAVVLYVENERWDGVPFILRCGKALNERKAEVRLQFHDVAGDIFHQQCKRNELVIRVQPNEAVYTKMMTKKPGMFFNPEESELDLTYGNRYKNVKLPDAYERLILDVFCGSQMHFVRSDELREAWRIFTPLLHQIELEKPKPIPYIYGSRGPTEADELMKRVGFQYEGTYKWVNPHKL

[10] = intracellular Trypanosoma cruzi inhibitors in host cells – cell-based, plate reader, cherry-pick samples, set 3, dose response (AID 651818); assay type: functional;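 also: compounds incubated with infected cells for about four days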
[11] = target: T4, High affinity choline transporter 1 (Homo sapiens, UniProt Q9GZV3); test: human choline transporter blockers, potency – cell-based, 5-point CRC, membrane potential dye, dose response (AID 504840); assay type: functional
T4 sequence (Q9GZV3 whole entry): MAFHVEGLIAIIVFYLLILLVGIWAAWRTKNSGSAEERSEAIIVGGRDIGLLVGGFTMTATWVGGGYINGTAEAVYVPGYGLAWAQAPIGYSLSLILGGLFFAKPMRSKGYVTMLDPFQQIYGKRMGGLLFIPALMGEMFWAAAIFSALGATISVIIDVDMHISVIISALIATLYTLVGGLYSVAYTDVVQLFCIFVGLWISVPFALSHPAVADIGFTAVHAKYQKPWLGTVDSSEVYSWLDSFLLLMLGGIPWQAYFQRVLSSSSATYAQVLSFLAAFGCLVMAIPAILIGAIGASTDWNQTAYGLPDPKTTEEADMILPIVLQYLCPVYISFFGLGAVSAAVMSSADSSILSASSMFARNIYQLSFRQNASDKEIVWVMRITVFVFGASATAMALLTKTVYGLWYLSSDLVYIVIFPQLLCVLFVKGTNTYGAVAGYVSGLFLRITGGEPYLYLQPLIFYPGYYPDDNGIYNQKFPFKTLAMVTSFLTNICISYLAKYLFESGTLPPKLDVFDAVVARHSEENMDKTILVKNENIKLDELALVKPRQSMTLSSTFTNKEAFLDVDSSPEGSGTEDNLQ

[12] = Luminescence Cell-Based Dose Retest to Confirm Inhibitors of Cancer Stem Cells. [Related pubchem assays (depositor defined):AID2717, AID2721]; assay type: functional; conditions: Homo sapiens
[13] = target: Cytochrome P450 2C19 (Homo sapiens, UniProt P33261); test: Cytochrome panel assay with activity outcomes. Panel member name: p450-cyp2c19 Compounds with AC50 equal or less than 10 uM are considered active; assay type: functional; conditions: read-out: AC50
Sequence of Cytochrome P450 2C19 (P33261 whole entry): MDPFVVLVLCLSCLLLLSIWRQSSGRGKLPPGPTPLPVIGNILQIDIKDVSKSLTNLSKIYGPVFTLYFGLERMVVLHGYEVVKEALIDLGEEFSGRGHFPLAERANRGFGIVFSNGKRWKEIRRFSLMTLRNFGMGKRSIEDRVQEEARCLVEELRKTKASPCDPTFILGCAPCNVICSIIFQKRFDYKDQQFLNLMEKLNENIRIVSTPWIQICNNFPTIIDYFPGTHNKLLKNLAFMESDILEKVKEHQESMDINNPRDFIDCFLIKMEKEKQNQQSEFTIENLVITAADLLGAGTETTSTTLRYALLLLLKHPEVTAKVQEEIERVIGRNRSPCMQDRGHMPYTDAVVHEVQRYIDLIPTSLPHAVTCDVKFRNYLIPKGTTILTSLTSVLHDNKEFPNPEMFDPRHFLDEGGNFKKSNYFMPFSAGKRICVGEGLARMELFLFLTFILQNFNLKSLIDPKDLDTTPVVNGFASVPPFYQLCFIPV

[14] = target: Cytochrome P450 2C9 (Homo sapiens, UniProt P11712)
Sequence of Cytochrome P450 2C9 (P11712 whole entry): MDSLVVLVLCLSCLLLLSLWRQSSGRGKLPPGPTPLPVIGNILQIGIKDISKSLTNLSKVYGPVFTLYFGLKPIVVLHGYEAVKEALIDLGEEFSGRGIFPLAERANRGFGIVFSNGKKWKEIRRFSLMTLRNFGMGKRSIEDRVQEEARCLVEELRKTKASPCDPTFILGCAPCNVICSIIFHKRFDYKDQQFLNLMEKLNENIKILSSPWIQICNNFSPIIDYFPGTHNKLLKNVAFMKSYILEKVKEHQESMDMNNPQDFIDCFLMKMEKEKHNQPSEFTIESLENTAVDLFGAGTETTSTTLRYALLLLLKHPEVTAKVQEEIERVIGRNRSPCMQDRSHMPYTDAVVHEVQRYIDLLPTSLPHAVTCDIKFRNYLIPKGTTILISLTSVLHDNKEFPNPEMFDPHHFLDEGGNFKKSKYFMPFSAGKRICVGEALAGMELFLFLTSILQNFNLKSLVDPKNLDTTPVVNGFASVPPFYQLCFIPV

[15] = non-specific 3'UTR reporter inhibition in Clone20-Shn3RL – cell-based, Renilla luciferase, cherry-picked, counter-screen for Shn3 inhibitor project, dose response (AID 624133); assay type: functional
[16] = target: Protein Wnt-3a (Mus musculus, UniProt P27467); test: antagonism of Wnt3a pathway luciferase reporter – Wnt-LIGHT cells, luminescence, selectivity assay for Gli-SUFU antagonist project, dose response (AID 651570); assay type: functional; conditions: read-out: IC50_Mean;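 also: Wnt-LIGHT reporter cells stimulated with conditioned medium from Wnt3a-producing cells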
Sequence of Protein Wnt-3a (P27467 whole entry): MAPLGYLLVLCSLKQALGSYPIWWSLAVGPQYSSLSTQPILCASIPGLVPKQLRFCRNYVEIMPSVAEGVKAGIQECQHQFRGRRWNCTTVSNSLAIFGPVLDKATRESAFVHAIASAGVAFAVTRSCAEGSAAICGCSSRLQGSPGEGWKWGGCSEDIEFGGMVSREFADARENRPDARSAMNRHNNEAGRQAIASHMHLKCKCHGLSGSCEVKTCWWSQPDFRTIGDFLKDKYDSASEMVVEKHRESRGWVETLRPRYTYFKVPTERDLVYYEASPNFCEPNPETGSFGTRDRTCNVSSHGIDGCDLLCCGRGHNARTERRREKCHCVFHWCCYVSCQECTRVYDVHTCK

[17] = reduction of Shn3 3'UTR-driven luciferase in osteoblasts – cell-based, Clone20 osteoblasts, firefly luciferase, cherry-picked, dose response (AID 624132); assay type: functional;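 also: firefly luciferase luminescence from reporter carrying the Shn3 3'UTR in osteoblasts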
[18] = system: INS1; test: INS-1E survival protection against cytokine death – cell-based, luminescence, retest, dose response (AID 449756); assay type: functional; conditions: Rattus norvegicus;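 also: cell death triggered by IL-1 beta plus TNF-alpha plus IFN-gamma mixture; protective hits raise ATP signal compared with cytokine alone wells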
[19] = loss of viability in HepG2 cells – cell-based, CellTiter-Glo, cherry-picked, cytotoxicity control for Shn3 inhibitor project, dose response (AID 624134); assay type: functional
[20] = target: Troponin, cardiac muscle (Homo sapiens, UniProt P19429+P45379+P63316); test: Fluorescence-based biochemical high throughput dose response assay for activators of the calcium sensitivity of cardiac Regulated Thin Filaments (RTF). [Related pubchem assays (depositor defined):AID493008, AID493018, AID504382, AID504383]; assay type: protein-complex assay

Sequence of Glyceraldehyde-3-phosphate dehydrogenase (P04406 whole entry): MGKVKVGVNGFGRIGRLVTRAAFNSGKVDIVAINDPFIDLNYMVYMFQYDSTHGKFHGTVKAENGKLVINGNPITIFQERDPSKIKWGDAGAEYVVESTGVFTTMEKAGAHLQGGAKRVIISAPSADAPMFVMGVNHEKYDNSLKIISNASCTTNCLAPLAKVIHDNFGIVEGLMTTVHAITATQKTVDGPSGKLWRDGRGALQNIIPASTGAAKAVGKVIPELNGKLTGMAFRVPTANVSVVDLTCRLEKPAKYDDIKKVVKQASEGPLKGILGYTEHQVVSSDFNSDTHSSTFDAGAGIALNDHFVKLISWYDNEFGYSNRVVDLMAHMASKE

SMILES: CCN1CCN(Cc2ccc(NC(=O)c3ccc(C)c(NC(=O)c4nccnc4N)c3)cc2C(F)(F)F)CC1
AC50 [1]: 0.528 µM (active)

SMILES: C[C@H]1CN([C@@H](C)CO)C(=O)Cc2cc(NC(=O)Nc3ccccc3)ccc2O[C@H]1CN(C)Cc1ccc(C(F)(F)F)cc1
AC50 [10]: 3.26 µM (active)

SMILES: Cc1ccc(-c2c(C(=O)N/N=C/c3ccc(C)o3)nnn2-c2nonc2N)cc1
IC50 [9]: 12.5 µM (active)

SMILES: Cc1ccc(/C=C/C(=O)NCC2COc3ccccc3O2)o1 (configuration not stated)
AC50 [12]: 33.1 µM (active) | IC50 [9]: > 80 µM (inactive)

SMILES: Cc1ccc(S(=O)(=O)Nc2ccc3c(c2)C(=O)N([C@@H](C)CO)C[C@H](C)[C@H](CN(C)Cc2ccc(Cl)c(Cl)c2)O3)cc1
AC50 [10]: 5.67 µM (active)

SMILES: O=C(c1cnc(N2CCN(c3ccccn3)CC2)c2ccccc12)N1CCN(c2cccc(Cl)c2)CC1
AC50 [15]: 3.68 µM (active) | IC50 [16]: 7.02 µM (active) | AC50 [17]: 1.99 µM (active) | AC50 [18]: 6.14 µM (active) | AC50 [19]: 59.9 µM (active)

SMILES: CN1C(=O)/C(=C/C=C2\SCCN2C)OC1=S
EC50 [20]: 7 µM (active)

Results, then the compound that gave them:

IC50 [2]: > 100 µM (not active) | IC50 [3]: > 100 µM (inactive)
SMILES: COc1ccc(OC)c(NCc2cnc3ccccc3c2)c1

AC50 [4]: inconclusive | AC50 [5]: 31.6 µM (inconclusive) | AC50 [6]: 5.01 µM (inconclusive)
SMILES: COC(=O)C(Cc1ccc(OC(=O)c2ccc(Cl)cc2)cc1)N1Cc2ccccc2C1=O (configuration not stated)

IC50 [7]: 17.9 µM (active) | IC50 [8]: 12.3 µM (active)
SMILES: COC(=O)c1ccc(C(=O)N2CCCC(Nc3ccc(C(C)C)cc3)C2)nc1 (configuration not stated)

IC50 [9]: > 80 µM (inactive)
SMILES: O=C1CCC[C@@H]2[C@@H](Cc3ccccc3)[C@H](N3CCN(c4ccccc4)CC3)C[C@@H]3CCN1[C@@H]32

IC50 [11]: 11.5 µM (active) | IC50 [9]: > 80 µM (inactive)
SMILES: Cc1ccc(-c2csc(NC(=O)c3ccccc3F)c2C(=O)O)cc1

AC50 [4]: inconclusive | AC50 [13]: 15.8 µM (inconclusive) | AC50 [14]: 12.6 µM (inconclusive) | AC50 [5]: 15.8 µM (inconclusive) | AC50 [6]: 7.94 µM (inconclusive)
SMILES: O=C(CCCN1CCN(c2ccccn2)CC1)c1ccc(F)cc1 [AZAPERONE]
